In this assay the target is Insulin-like growth factor 1 receptor (Homo sapiens, UniProt P08069). Description: In Vitro Kinase Inhibition Assay. The method, then: Assays were performed in microtiter plates in reaction buffer containing biotinylated substrate, ATP, and purified kinase in the presence of test compounds. After incubation, product was detected using a homogeneous time-resolved fluorescence quenching assay (LANCE).

IC50 data for five compounds are collected here from BindingDB's records for doi:10.1016/j.bmcl.2008.11.037 (Wyeth Research, 2009).

What is called IC50 is the concentration that gives 50% inhibition.

Sequence of Insulin-like growth factor 1 receptor (P08069 31-736 limits assumed): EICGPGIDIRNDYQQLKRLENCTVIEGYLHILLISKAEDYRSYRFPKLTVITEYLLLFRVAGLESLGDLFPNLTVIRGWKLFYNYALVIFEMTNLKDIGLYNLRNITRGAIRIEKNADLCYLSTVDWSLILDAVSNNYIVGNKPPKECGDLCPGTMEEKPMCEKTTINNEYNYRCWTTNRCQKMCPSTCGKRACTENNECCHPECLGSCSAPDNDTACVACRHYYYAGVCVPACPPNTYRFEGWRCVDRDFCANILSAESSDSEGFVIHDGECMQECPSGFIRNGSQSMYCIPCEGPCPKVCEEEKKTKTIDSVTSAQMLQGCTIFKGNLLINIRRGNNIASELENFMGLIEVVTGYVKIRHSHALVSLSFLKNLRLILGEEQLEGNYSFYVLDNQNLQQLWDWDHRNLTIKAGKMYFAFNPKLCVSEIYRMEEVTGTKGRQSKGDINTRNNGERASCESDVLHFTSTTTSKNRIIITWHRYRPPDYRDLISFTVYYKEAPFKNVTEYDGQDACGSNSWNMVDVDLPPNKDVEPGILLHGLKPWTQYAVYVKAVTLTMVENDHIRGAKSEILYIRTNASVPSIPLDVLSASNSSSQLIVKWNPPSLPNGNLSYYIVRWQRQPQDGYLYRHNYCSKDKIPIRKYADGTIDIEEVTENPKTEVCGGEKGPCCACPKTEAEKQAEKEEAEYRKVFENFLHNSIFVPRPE
Sequence of Insulin-like growth factor 1 receptor (P08069 741-1367 limits assumed): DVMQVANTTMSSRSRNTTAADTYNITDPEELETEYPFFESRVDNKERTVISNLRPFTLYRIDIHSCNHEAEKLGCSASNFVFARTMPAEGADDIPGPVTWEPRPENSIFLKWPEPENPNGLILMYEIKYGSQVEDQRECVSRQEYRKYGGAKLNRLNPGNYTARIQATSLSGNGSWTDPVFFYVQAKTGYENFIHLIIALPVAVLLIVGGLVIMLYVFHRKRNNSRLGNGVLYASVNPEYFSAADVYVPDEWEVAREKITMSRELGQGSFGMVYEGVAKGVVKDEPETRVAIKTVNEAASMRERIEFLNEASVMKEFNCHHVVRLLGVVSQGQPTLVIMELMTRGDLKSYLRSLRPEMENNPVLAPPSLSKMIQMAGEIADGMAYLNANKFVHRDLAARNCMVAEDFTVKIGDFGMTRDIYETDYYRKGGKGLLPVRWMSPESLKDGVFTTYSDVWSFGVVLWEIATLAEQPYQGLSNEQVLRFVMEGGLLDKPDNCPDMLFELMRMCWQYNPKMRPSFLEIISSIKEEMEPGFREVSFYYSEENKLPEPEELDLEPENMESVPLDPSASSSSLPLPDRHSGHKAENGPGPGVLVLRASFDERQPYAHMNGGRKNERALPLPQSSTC

Compound `COc1cc2c(Nc3ccc(Sc4ncc(C)n4C)c(Cl)c3)c(C#N)cnc2cc1NCCCN(C)C` [4-({3-chloro-4-[(1,5-dimethyl-1H-imidazol-2-yl)sulfanyl]phenyl}amino)-7-{[3-(dimethylamino)propyl]amino}-6-methoxyquinoline-3-carbonitrile] yielded a concentration for half-maximal inhibition (IC50) (pH 7.5, 22 °C) of 291 nM.

Where the note is “pH 7.5, 22 °C”, `CCn1c(Sc2ccc(Nc3c(C#N)cnc4cc(NCCCN5CCOCC5)c(OC)cc34)cc2Cl)nc(C)c1C` [4-({3-chloro-4-[(1-ethyl-4,5-dimethyl-1H-imidazol-2-yl)sulfanyl]phenyl}amino)-6-methoxy-7-{[3-(morpholin-4-yl)propyl]amino}quinoline-3-carbonitrile] registered a half-inhibitory concentration (IC50) of 20 nM.

`COc1cc2c(Nc3ccc(Sc4ccccc4)cc3)c(C#N)cnc2cc1OCCCN1CCOCC1` [6-methoxy-7-[3-(morpholin-4-yl)propoxy]-4-{[4-(phenylsulfanyl)phenyl]amino}quinoline-3-carbonitrile]: 1090 nM corresponded to half-maximal inhibition (IC50). That is a single-digit micromolar value.

`CCOC(=O)C1CCN(CCCOc2cc3ncc(C#N)c(Nc4ccc(Sc5nc(C)c(C)n5CC)c(Cl)c4)c3cc2OC)CC1` [ethyl 1-(3-{[4-({3-chloro-4-[(1-ethyl-4,5-dimethyl-1H-imidazol-2-yl)sulfanyl]phenyl}amino)-3-cyano-6-methoxyquinolin-7-yl]oxy}propyl)piperidine-4-carboxylate] displayed an IC50 (pH 7.5, 22 °C) of 135 nM.

The compound `CCn1c(Sc2ccc(Nc3c(C#N)cnc4cc(OCCCN5CCN(CCOC(N)=O)CC5)c(OC)cc34)cc2Cl)nc(C)c1C` [{2-[4-(3-{[4-({3-chloro-4-[(1-ethyl-4,5-dimethyl-1H-imidazol-2-yl)sulfanyl]phenyl}amino)-3-cyano-6-methoxyquinolin-7-yl]oxy}propyl)piperazin-1-yl]ethyl} carbamate] showed an IC50 of 17 nM.
